What all share (assay type): in vivo
Assay [1] has as its system Silverleaf Whitefly (Bemisia argentifolii). The assay is described as follows: Silverleaf whitefly, cotton cotyledon dip test. The note with it: for biological activity (0% no activity to 100% total control), Bemesia argentifolia: 300 ppm, comparative test; for mortality at 100 ppm: Bemisia argentifolii, 72 h, 3 days after treatment, adults on cotton cotyledons, read-out: mortality compared to untreated controls (silverleaf whitefly). The procedure:
(§1) In the following tests, if not precised otherwise, the formulated solutions of some of the compound examples were diluted to an active ingredient concentration of 300 ppm, and the diluted solutions were applied in the below mentioned tests.
(§2) The active compounds were formulated in 50:50 acetone:water and 100 ppm Kinetic™ surfactant.
Selected cotton plants were grown to the cotyledon state (one plant per pot). The cotyledons were dipped into the test solution to provide complete coverage of the foliage and placed in a well-vented area to dry. Each pot with treated seedling was placed in a plastic cup and 10 to 12 whitefly adults (approximately 3-5 day old) were introduced. The insects were colleted using an aspirator and an 0.6 cm, non-toxic TygonO tubing (R-3603) connected to a barrier pipette tip. The tip, containing the collected insects, was then gently inserted into the soil containing the treated plant, allowing insects to crawl out of the tip to reach the foliage for feeding. The cups were covered with a reusable screened lid (150 micron mesh polyester screen PeCap from Tetko Inc). Test plants were maintained in the holding room at about 25° C. and 20-40% relative humidity for 3 days avoiding direct exposure to the fluorescent light (24 hour photoperiod) to prevent trapping of heat inside the cup. Mortality was assessed 3 days after treatment of the plants.
(§3) The biological activity in tables B.1 and B.2 was evaluated on scale range from 0% as showing no biological activity to 100% as having total control. The comparative biological tests were conducted as described above.

The subject of assay [2] is Cotton Aphid (aphis gossypii), Mixed Life Stages. The assay is described as follows: Cotton aphid, mixed life stages, infested cotyledon dip test. The note with it: 300 ppm; comparative test. As for the experimental part:
as §1
The active compounds were formulated in 50:50 acteone/water and 100 ppm Kinetic™ surfactant
Cotton plants at the cotyledon stage were infested prior to treatment by placing a heavily infested leaf from the main aphid colony on top of each cotyledon. The aphids were allowed to transfer overnight and the host leaf was removed. The infested cotyledons were then dipped and agitated in the test solution for 3 seconds and allowed to dry in a fume hood. Test plants were maintained under fluorescent lighting in a 24-hr photoperiod at 25° C. and 20-40% relative humidity. Aphid mortality on the treated plants, relative to mortality on untreated check plants, was determined after 5 days.
as §3

Assay [3] deals with Southern Armyworm (spodoptera eridania), 2nd-3rd Instar Larvae. The assay can be described thus: Southern armyworm, lima bean foliage dip test. As to conditions: for biological activity (0% no activity to 100% total control), Spodoptera eridania: 300 ppm, comparative test. The procedure: as §1
The active compounds were formulated as a 10.000 ppm solution in a mixture of 35% acetone and water, which was diluted with water, if needed.
Sieva lima bean foliage, expanded to the first true leaves, were dipped and agitated in the test solution for 3 seconds and then allowed to dry in a fume hood. The treated plant was then placed in 25-cm plastic perforated zip enclosure bags, ten 2nd-instar larvae were added, and the bags sealed. After 4 days, observations were made of mortality, plant feeding, and of any interference with larval growth.
as §3

The subject of assay [4] is Rice Plant Hopper (Nilaparvata lugens). The assay can be described thus: Rice plant hopper, sprayed rice seedlings. The note with it: for biological activity (0% no activity to 100% total control), Nilaparvata lugens: 300 ppm, comparative test; for mortality at 100 ppm: Nilaparvata lugens, after 72 hours, rice seedlings sprayed, 10 adults. The procedure: as §1
Rice seedlings were cleaned and washed 24 hours before spraying. The active compounds were formulated in 50:50 acetone:water and 0.1% vol/vol surfactant (EL 620) was added. Potted rice seedlings were sprayed with 5 ml test solution, air dried, placed in cages and inoculated with 10 adults. Treated rice plants were kept at 28-29° C. and relative humidity of 50-60%. Percent mortality was recorded after 72 hours.
as §3

Assay [5] deals with Green Peach Aphid (Myzus persicae), Mixed Life Stages. The assay can be described thus: Green peach aphid, mixed life stages, bell pepper leaf dip test. The note with it: 300 ppm; comparative test. The procedure: as §1
Bell pepper plants at the first true-leaf stage were infested prior to treatment by placing heavily infested leaves from the main aphid colony on top of the treatment plants. The aphids were allowed to transfer overnight to accomplish an infestation of 30-40 aphids per plant and the host leaves were removed. The infested leaves of the test plants were then dipped and agitated in the test solution for 3 seconds and allowed to dry in a fume hood. Test plants were maintained under fluorescent lighting in a 24-hr photoperiod at 25° C. and 20-40% relative humidity. Aphid mortality on the treated plants, relative to mortality on untreated check plants, was determined after 5 days.
as §3

The next assay deals with Bean Aphid (aphis fabae). The assay can be described thus: Bean aphid, nasturtium plant dip test. As to conditions: 72 h, after 3 days, nasturtium plants dipped. The procedure:
as §1, §2
Nasturtium plants grown in Metro mix in the 1st leaf-pair stage (variety ‘Mixed Jewle’) were infested with approximately 2-30 laboratory-reared aphids by placing infested cut plants on top of the test plants. The cut plants were removed after 24 hr. Each plant was dipped into the test solution to provide complete coverage of the foliage, stem, protruding seed surface and surrounding cube surface and allowed to dry in the fume hood. The treated plants were kept at about 25° C. with continuous fluorescent light. Aphid mortality was determined after 3 days.

Assay [6] has as its system Colorado Potato Beetle (Leptinotarsa decemlineata). The assay is described as follows: Colorado potato beetle, potato leaf dip test. The note with it: foliar, 120 h, 5 days after treatment, larvae on dipped potato leaves, read-out: mortality compared to untreated controls (Colorado potato beetle). As for the experimental part: as §1
Potato plants were utilized for bioassays. Excised plant leaves were dipped into 1:1 acetone/water dilutions of the active compounds. After the leaves had dried, they were individually placed onto water-moistened filter paper on the bottoms of Petri dishes.
Each dish was infested with 5-7 larvae and covered with a lid. Each treatment dilution was replicated 4 times. Test dishes were held at approximately 27° C. and 60% humidity. Numbers of live and morbid larvae were assessed in each dish at 5 days after treatment application, and mortality percentage was calculated.

For assay [7], the system named is Rice Green Leafhopper (Nephotettix virescens). The assay is described as follows: Rice green leafhopper, sprayed rice seedlings. As to conditions: after 72 hours, 10 adults. The procedure:
as §1
Rice seedlings were cleaned and washed 24 hours before spraying. The active compounds were formulated in 50:50 acetone:water, and 0.1% vol/vol surfactant (EL 620) was added. Potted rice seedlings were sprayed with 5 ml test solution, air dried, placed in cages and inoculated with 10 adults. Treated rice plants were kept at 28-29° C. and relative humidity of 50-60%. Percent mortality was recorded after 72 hours.

Assay [8] relates to Cowpea Aphid (aphis craccivora). The assay can be described thus: Cowpea aphid, sprayed potted cowpea plants. The note with it: population reduction recorded after 24, 72 and 120 hours. The procedure: as §1
The active compounds were formulated in 50:50 acetone:water. Potted cowpea plants colonized with 100-150 aphids of various stages were sprayed after the pest population has been recorded. Population reduction was recorded after 24, 72, and 120 hours.

The values below come from patent US8242123B2, “Insecticidal methods using 4-amino-5-chloro-thieno[2,3-d]-pyrimidine compounds” (Merial Limited, priority 2006, dated 2012).

Each structure is given as a SMILES string.

A word on the mortality: it is the share of the test organisms that died.

Regarding `[H][C@H]1CC[C@H](Nc2ncnc3scc(Cl)c23)CC1` [reference compound], in assay [1], the “biological activity (0% no activity to 100% total control), Bemesia argentifolia” value came out at 0%. Besides, the “biological activity (0% no activity to 100% total control), Aphis gossypii” value in assay [2] worked out at 75%. The “biological activity (0% no activity to 100% total control), Spodoptera eridania” value in assay [3] is listed as 0%. Also, the “biological activity (0% no activity to 100% total control), Nilaparvata lugens” value in [4] turned out to be 0%. For the same compound, in assay [5], the “biological activity (0% no activity to 100% total control), Myzus persicae” value is 50%.

In the case of `CC(C)(C)[C@H]1CC[C@@H](Nc2ncnc3scc(Cl)c23)CC1` [Compound 6, cis-(4-tert-Butyl-cyclohexyl)-(5-chloro-thieno[2,3-d]pyrimidin-4-yl)-amine], the mortality at 100 ppm is not below 90% in assay [1]; not below 60% in the assay with Bean Aphid (aphis fabae); not below 90% in assay [6]; not below 60% in [7]; not below 75% in assay [8]; not below 90% in assay [4].

As to `CC(C)(C)[C@H]1CC[C@@H](Nc2ncnc3scc(Cl)c23)CC1` [drawing 15], the “biological activity (0% no activity to 100% total control), Bemesia argentifolia” value in [1] turned out to be 100%. Also, the “biological activity (0% no activity to 100% total control), Aphis gossypii” value in assay [2] was determined as 100%. Further, in assay [3], the “biological activity (0% no activity to 100% total control), Spodoptera eridania” value is listed as 100%. Besides, the “biological activity (0% no activity to 100% total control), Nilaparvata lugens” value in [4] is reported as 100%. Besides, in [5], the “biological activity (0% no activity to 100% total control), Myzus persicae” value is reported as 100%.

`CC(Nc1ncnc2scc(Cl)c12)c1ccc(OC(F)(F)F)cc1` (centres unmarked) [Compound 2, (5-Chloro-thieno[2,3-d]pyrimidin-4-yl)-[1-(4-trifluoromethoxy-phenyl)-ethyl]-amine]: the mortality at 100 ppm in assay [1] is not below 90%; in the assay on Bean Aphid (aphis fabae), not below 60%; in assay [6], not below 90%; in assay [7], not below 60%; in assay [8] it was not below 75%; in assay [4] it was not below 90%.

For the compound `FC(F)(F)Oc1ccc(CCNc2ncnc3scc(Cl)c23)cc1` [Compound 5, (5-Chloro-thieno[2,3-d]pyrimidin-4-yl)-[2-(4-trifluoromethoxy-phenyl)-ethyl]-amine], the mortality at 100 ppm was not below 90% in [1]; not below 90% in assay [6]; not below 60% in assay [7]; not below 60% in [3] (Spodoptera eridania, foliar, 96 h, 100 ppm, after 4 days, lima bean foliage dipped, read-out: mortality in comparison with untreated controls (southern armyworm)); not below 75% in assay [8]; not below 90% in assay [4].

Take `C[C@H](Nc1ncnc2scc(Cl)c12)c1ccccc1` [reference compound]: the “biological activity (0% no activity to 100% total control), Bemesia argentifolia” value in assay [1] was 0%. Further, the “biological activity (0% no activity to 100% total control), Aphis gossypii” value in assay [2] is 100%. In addition, in assay [4], the “biological activity (0% no activity to 100% total control), Nilaparvata lugens” value was 0%. The “biological activity (0% no activity to 100% total control), Myzus persicae” value in [5] stood at 100%.
